Laboratory results published in US20050171005A1, “Methods and compositions for modulating beta-catenin phosphorylation” (priority 2002, published 2005).
Where a SMILES comes first, the peptide text is derived from it. The star is where a group is joined. Cbz = O=C(OCc1ccccc1)*

What was measured:
endogenous β-catenin = experiment: Phosphorylation of endogenous β-catenin in proteasome-inhibited HeLa cells with kinase inhibitors; format: cell-based; details: H89 5 μM
Protocol: FIG. 5d: Effects of specific kinase inhibitors on the phosphorylation of endogenous β-catenin at S41,45 and S33 in HeLa cells. CKI-7 was used at 100 μM, H89 at 5 μM and LiCl at 40 mM. β-catenin was detected with anti-β-catenin antibody, or anti-phospho-p-catenin antibodies.
(§1) 293T cells were transiently transfected using the calcium phosphate procedure. The following expression vectors were used: Myc- or Flag-tagged β-catenin (0.5 μg) (a human β-catenin clone obtained from R. Grosschedl), Flag- or Myc-tagged axin (2 μg) (mouse cDNA provided by F. Costantini), HA-GSK3β or Flag-GSK3β (3.5 μg) (a rabbit clone obtained from J R Woodgett) [Woodgett, J. R. (1990) EMBO J 9: 2431-2438]. β-catenin mutants include DP, (S33, S37, T40, S45, S47 substituted to alanine) single point mutants (S29F, S33Y, S37A, T41A, S45F) and 45PKA (T41S, T42R, A43R). Additional vectors: Flag-WD, a dominant negative β-TrCP fragment (ΔF-box) [Yaron, A. et al. (1998) Nature 396: 590-594]; Flag-Dvl-1 (a mouse cDNA clone obtained from S-I Yanagawa) [Lee, J. S. et al. (1999) J Biol Chem 274: 21464-21470]; WT and dominant negative Xenopus CKIε (XCKIε-D128N) (provided by T. Shcwarz-Romond) [McKay, R. M. et al. (2001) Dev Biol 235: 378-387]. 24-48 hr after transfection, cells were harvested and processed for the various experiments. MG-132 (Sigma) was used at 20 μM for 5 hr; LiCl (40 mM) was added for 6 hr, and CKI-7 (100 μM) for 16 hr prior to harvesting. β-catenin, axin or GSK-30 in cell lysates were detected using anti-Myc (Ab-1, Oncogenes Research Products, 2 μg/ml), anti-Flag (M2, Sigma, 1 μg/ml) and anti-HA (12CA5 ascites fluid; 1:5000) antibodies, respectively. GFP expression was monitored with anti-GFP antibody (JL-8, Clontech, 1 μg/ml). In some experiments (FIG. 4) GSK-3β was detected using anti-GSK-3β monoclonal antibodies (clone 7, Transduction Laboratories, 0.1 μg/ml). Endogenous and exogenous β-catenin (FIGS. 5d and 6a) were detected with anti-β-catenin antibodies (clone 14, Transduction Laboratories) (0.25 μg/ml).
Western blot and mass spectrometry (MS). Three different commercial anti-β-catenin phospho-peptide antibodies were used: i) Anti-phospho-Thr41/Ser 45 (Cell Signaling Technology), a polyclonal antibody specific for both pT41 and pS45 (otp41,45). ii) Anti-phospho-Ser33/37/Thr41 (Cell Signaling Technology), a polyclonal antibody recognizing pS33 (αp33). […] Antibody specificities were determined by phosphopeptide inhibition studies. […]
In another set of experiments the in vivo role of CKI in S45 phosphorylation was analyzed, using two dominant negative CKIε constructs (dnXCKIε K85R and D128N) [McKay et al. (2001) id ibid.] and a specific CKI inhibitor (CKI-7) [Chijiwa, T. et al. (1989) J Biol Chem 264: 4924-4927]. […]

β-catenin [1] = format: cell-based, human; details: 293 cells; CKI-7 100 μM for 16 hr; H89 data not shown
Protocol: as §1
Western blot and mass spectrometry (MS). Three different commercial anti-β-catenin phospho-peptide antibodies were used: i) Anti-phospho-Thr41/Ser 45 (Cell Signaling Technology), a polyclonal antibody specific for both pT41 and pS45 (otp41,45). ii) Anti-phospho-Ser33/37/Thr41 (Cell Signaling Technology), a polyclonal antibody recognizing pS33 (αp33). These two polyclonal antibodies were used at a 1:1000 dilution, according to the manufacturer's instructions. iii) anti-phospho-Ser 33/37 (BC-22, Sigma), a monoclonal antibody specific for pS37 (used as ascites fluid at a 1:3000 dilution; αp37). Antibody specificities were determined by phosphopeptide inhibition studies. D^32S(PO4)GIHSGATTTAPS^45 abolished the αp33, but not the αp37 signal; D^32SGIHS(PO4)GATTTAPS^45 blocked the αp37 but not the αp33 signal. […] Proteins for MS analysis were immunopurified by M2 Flag-affinity beads (Sigma), separated by SDS-PAGE, Coomassie stained and the β-catenin bands were in-gel digested with endoproteinase Asp-N. The resulting peptides were desalted on small columns, eluted with 20% MeOH, 5% HCOOH, and analyzed by nanoelectrospray mass spectrometry [Yaron et al. (1998) id ibid.], using a quadrupole time-of-flight mass spectrometer (PE-Sciex, Canada).
GSK-3β is traditionally known to target the phosphorylation of +4P-primed substrates [Frame, S. et al. (2001) Mol Cell 7: 1321-1327], a specificity supported by recent structural studies of the enzyme [Dajani, R. et al (2001) Cell 105: 721-732]. The fact that the S45 phosphorylation site is not preceded by a +4P priming site led to the proposition that the molecular complex of axin and GSK-3β is capable of bypassing the priming requirement of the uncomplexed enzyme [Cohen and Frame (2001) id ibid.]. To assess the contribution of GSK-30 in axin-mediated S45 phosphorylation, two types of experiments were carried out. In the first set, 293 cells were incubated prior to harvesting with LiCl, a GSK-3β inhibitor capable of mimicking a Wnt effect [Klein, P. S. and D. A. Melton (1996) Proc Natl Acad Sci USA 93: 8455-8459; Stambolic, V. et al. (1996) Curr Biol 6: 1664-1668].

β-catenin [2] = experiment: β-catenin degradation in the 293 axin/GSK-3β expression system (Western blot); format: cell-based, human; details: 293 cells, axin and GSK-3β overexpression, Myc-β-catenin; MG-132 20 μM for 5 hr
Protocol: as §1, with “T42R, A43R). […] MG-132 (Sigma)” for “T42R, A43R). Additional vectors: Flag-WD, a dominant negative β-TrCP fragment (ΔF-box) [Yaron, A. et al. (1998) Nature 396: 590-594]; Flag-Dvl-1 (a mouse cDNA clone obtained from S-I Yanagawa) [Lee, J. S. et al. (1999) J Biol Chem 274: 21464-21470]; WT and dominant negative Xenopus CKIε (XCKIε-D128N) (provided by T. Shcwarz-Romond) [McKay, R. M. et al. (2001) Dev Biol 235: 378-387]. 24-48 hr after transfection, cells were harvested and processed for the various experiments. MG-132 (Sigma)”, “(0.25 μg/ml). […]” for “(0.25 μg/ml).”

β-catenin [3] = experiment: Okadaic acid treatment of HeLa, SW480 and SNU449 cells, Western blot with anti-phospho β-catenin antibodies; format: cell-based
Protocol: FIG. 7a: HeLa cells were incubated with MG132 with or without okadaic acid (1 μM for 3 hr). Cell lysates were analyzed by Western blotting with αp45 and αp33.
FIG. 7b: SNU449 cells [Satoh et al. (2000) id ibid.] were treated with okadaic acid (1 μM for 1 or 3 hr), and their lysates tested for S45 phosphorylation by Western blotting,
FIG. 7c: Okadaic Acid induces β-Catenin phosphorylation and degradation in the APC mutated cell line SW480.
Okadaic acid is a selective inhibitor of phosphatase PP2A, while it inhibits to a lower extent (10-50 fold less) phosphatase PP1. Proteasome-inhibited HeLa and SW480 cells (treated with 20 μM MG132) or Ser 37-mutated SNU 449 […] cells [Satoh et al. (2000) id ibid.] were treated with okadaic acid (1 μM) for 1 or 3 hr, harvested and their lysate analyzed by Western blot with anti-phospho β-catenin antibodies: anti-pSer45 and anti-pSer33 (for HeLa and RKO cells only). […] Yet, since S45 phosphorylation precedes the S33 phosphorylation, the okadaic effect may be reserved to S45. This is an example of a compound that can upregulate S45 phosphorylation, while Wnt3A downregulates the same phosphorylation event (FIG. 6a).

phosphatase PP1 = details: selective inhibitor of phosphatase PP2A; cited from earlier work
β-catenin [4] = experiment: Wnt3A conditioned medium stimulation of L, SNU449, HeLa and Jurkat cells, β-catenin level and phosphorylation by Western blot; format: cell-based
Protocol: FIG. 6a: Wnt3A inhibits S45 phosphorylation. Mouse L cells, SNU449 hepatoma cells [Satoh et al. (2000) Nat Genet 24(3):245-50], HeLa cells and β-catenin transfected Jurkat T cells were incubated (5 hr) with conditioned medium of wt or Wnt3A secreting L cells [Shibamoto et al. (1998) Genes Cells 3: 659-670]. MG-132 or okadaic acid (OKA, 1 μM) were added to the indicated cultures. Endogenous (HeLa, L cells and SNU449) and exogenous (Jurkat) β-catenin was detected with anti-β-catenin antibody, or anti-phospho-β-catenin antibodies. The numbers under the different lanes are relative densitometry figures, referring to the signal intensity of untreated cultures.
The control of β-catenin stability is a major task of the Wnt pathway and is mediated through members of the conserved protein family dishevelled (Dvl 1,2,3) [Boutros and Mlodzik (1999) id ibid.]. […] To this end, several cell lines were first stimulated with Wnt3A [Roelink, H. and R. Nusse. (1991) Genes Dev 5: 381-388; Shibamoto, S. et al. (1998) id ibid.; Lee et al. (1999) id ibid.], and S45 phosphorylation was monitored by Western blot analysis. Wnt stimulation stabilized endogenous β-catenin in mouse L-cells (fibroblasts) (FIG. 6a, lanes 1,2) and exogenous β-catenin in Jurkat lymphocytes (lanes 5,6). […] (lanes 9-11). S45 phosphorylation of β-catenin was evident in proteasome-inhibited L cells (lane 3), Jurkat cells (lane 7) and HeLa cells (lane 14). It was also apparent in okadaic acid-treated SNU449 cells (OKA, lane 10).

For `O=S(=O)(NCCNC/C=C/c1ccc(Br)cc1)c1cccc2cnccc12` [H89], the “wt β-catenin phosphorylation” value (endogenous β-catenin) was “no effect” and the “constitutive S45 phosphorylation of 45PKA β-catenin” value (β-catenin [1]) was “inhibited”.
For `CC(C)C[C@@H](C=O)NC(=O)[C@H](CC(C)C)NC(=O)[C@H](CC(C)C)NC(=O)OCc1ccccc1` [MG-132] (Cbz-Leu-Leu-Leu-aldehyde), the β-catenin degradation (β-catenin [2]) was “blocked”.
With `C=C1[C@@H](O)[C@@H]2O[C@]3(CC[C@H](/C=C/[C@@H](C)[C@@H]4CC(C)=C[C@@]5(O[C@H](C[C@@](C)(O)C(=O)O)CC[C@H]5O)O4)O3)CC[C@H]2O[C@@H]1[C@@H](O)C[C@H](C)[C@H]1O[C@@]2(CCCCO2)CC[C@H]1C` [okadaic acid] the “β-Catenin phosphorylation and degradation” value (β-catenin [3]; APC mutated cell line SW480) was “induces”, the “phosphorylation signal with anti-pSer45” value (β-catenin [3]; MG132-treated HeLa and SW480 cells or SNU 449 cells, okadaic acid 1 μM for 1 or 3 hr) was “induces a massive phosphorylation signal” and the “S45 phosphorylation of β-catenin” value (β-catenin [3]; SNU449 cells, okadaic acid 1 μM) was “apparent”. The “phosphorylation signal with anti-pSer33” value (β-catenin [3]; okadaic acid 1 μM for 1 or 3 hr, for HeLa and RKO cells only (so in the source)) was “induces a massive phosphorylation signal” and the “inhibition of phosphatase PP1 relative to PP2A” value (phosphatase PP1) was 10-50 fold less.
For Wnt3A, the S33/37 phosphorylation (β-catenin [4]; Jurkat, HeLa and L cells) was “inhibition”, the “levels of S37 mutated β-catenin” value (β-catenin [4]; SNU449 hepatoma cell line, conditioned medium 5 hr) was “did not affect” and the S45 phosphorylation (β-catenin [4]; all four cell lines (L, Jurkat, SNU449, HeLa), MG-132 or okadaic acid treated) was “inhibition”. The “β-catenin level (stabilization)” value (β-catenin [4]; endogenous β-catenin in mouse L-cells, exogenous β-catenin in Jurkat lymphocytes, conditioned medium 5 hr) was “stabilized”.
